Laboratory results from US10335409B2 (priority 2012, dated 2019).

Experiments:
[1] = target: HCV NS3 protease domain genotype 3a (Hepatitis C virus genotype 3a, UniProt Q81258); experiment: Ki determination, NS3 protease genotype 3a (fluorogenic depsipeptide substrate); assay type: biochemical; conditions: 200 pM enzyme, NS4A peptide
In short: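 The NS3 protease domain (aa 1-181) with 20 μM NS4A peptide was used at 50 pM with 4 μM substrate (1b) or at 200 pM with 2 μM substrate (3a). Inhibitors (100 nM-5 pM) were pre-incubated 1 h at room temperature in HEPES/glycerol/DTT buffer with 10% DMSO. Steady-state rates (90-120 min) gave Ki via the Morrison equation, corrected for active enzyme and [S]/Km.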

[2] = tested on: genotype 1b (Con1) stable HCV replicon in Huh-7-derived cells; experiment: Stable subgenomic HCV replicon EC50, genotype 1b (Renilla luciferase); assay type: cell-based, hepatitis C virus; conditions: Hepatitis C virus, stable replicon genotype 1b, 72 h, read-out: EC50 1B RLUC
In short: (§1)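 Compounds, three-fold diluted, were applied to Huh-7-derived cells harbouring luciferase replicons (genotype 1a H77, 1b Con1, 2a JFH-1, 4a ED43, with strain-specific adaptive mutations). Seventy-two hours later, intracellular replication was gauged by Renilla luciferase activity and EC50 derived by regression.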

[3] = tested on: genotype 1a (H77) wild type transient HCV replicon in Huh-7-derived cells; experiment: Transient-transfected HCV replicon EC50, genotype 1a wild type; assay type: cell-based, hepatitis C virus; conditions: Hepatitis C virus, 72 h, transient-transfected replicon genotype 1a wild type, read-out: EC50 1A WT
[4] = tested on: genotype 3a (S52) wild type transient HCV replicon in Huh-7-derived cells; experiment: Transient-transfected HCV replicon EC50, genotype 3a wild type; assay type: cell-based, hepatitis C virus; conditions: Hepatitis C virus; transient-transfected replicon genotype 3a wild type, 72 h; read-out: EC50 3A WT
[5] = tested on: genotype 1a (H77) stable HCV replicon in Huh-7-derived cells; experiment: Stable subgenomic HCV replicon EC50, genotype 1a (Renilla luciferase); assay type: cell-based, hepatitis C virus; conditions: Hepatitis C virus, stable replicon genotype 1a, 72 h, read-out: EC50 1A RLUC
In short: as §1

[6] = tested on: genotype 1a NS3/4a protease inhibitor resistant variant R155K transient HCV replicon in Huh-7-derived cells; experiment: Transient-transfected HCV replicon EC50, genotype 1a R155K; assay type: cell-based, hepatitis C virus; conditions: Hepatitis C virus, 72 h, read-out: EC50 1A R155K, transient-transfected replicon genotype 1a R155K resistant variant, 72 h
[7] = tested on: genotype 3a (S52) stable HCV replicon in Huh-7-derived cells; experiment: Stable subgenomic HCV replicon EC50, genotype 3a (Renilla luciferase); assay type: cell-based, hepatitis C virus; conditions: Hepatitis C virus, 72 h, read-out: EC50 3A RLUC
[8] = tested on: genotype 4a (ED43) stable HCV replicon in Huh-7-derived cells; experiment: Stable subgenomic HCV replicon EC50, genotype 4a (Renilla luciferase); assay type: cell-based, hepatitis C virus; conditions: Hepatitis C virus, 72 h, read-out: EC50 4A RLUC
In short: as §1

[9] = tested on: genotype 2a (JFH-1) stable HCV replicon in Huh-7-derived cells; experiment: Stable subgenomic HCV replicon EC50, genotype 2a (Renilla luciferase); assay type: cell-based, hepatitis C virus; conditions: Hepatitis C virus, stable replicon genotype 2a, 72 h, read-out: EC50 2A RLUC
In short: as §1

[10] = tested on: genotype 1b (Con1) wild type transient HCV replicon in Huh-7-derived cells; experiment: Transient-transfected HCV replicon EC50, genotype 1b wild type; assay type: cell-based, hepatitis C virus; conditions: Hepatitis C virus, 72 h, transient-transfected replicon genotype 1b wild type, read-out: EC50 1B WT
[11] = tested on: genotype 1b NS3/4a protease inhibitor resistant variant D168A transient HCV replicon in Huh-7-derived cells; experiment: Transient-transfected HCV replicon EC50, genotype 1b D168A; assay type: cell-based, hepatitis C virus; conditions: Hepatitis C virus, 72 h, read-out: EC50 1B D168A, transient-transfected replicon genotype 1b D168A resistant variant, 72 h

Chain of HCV NS3 protease domain genotype 3a (Q81258 whole entry, looked up, the tested form may be a part): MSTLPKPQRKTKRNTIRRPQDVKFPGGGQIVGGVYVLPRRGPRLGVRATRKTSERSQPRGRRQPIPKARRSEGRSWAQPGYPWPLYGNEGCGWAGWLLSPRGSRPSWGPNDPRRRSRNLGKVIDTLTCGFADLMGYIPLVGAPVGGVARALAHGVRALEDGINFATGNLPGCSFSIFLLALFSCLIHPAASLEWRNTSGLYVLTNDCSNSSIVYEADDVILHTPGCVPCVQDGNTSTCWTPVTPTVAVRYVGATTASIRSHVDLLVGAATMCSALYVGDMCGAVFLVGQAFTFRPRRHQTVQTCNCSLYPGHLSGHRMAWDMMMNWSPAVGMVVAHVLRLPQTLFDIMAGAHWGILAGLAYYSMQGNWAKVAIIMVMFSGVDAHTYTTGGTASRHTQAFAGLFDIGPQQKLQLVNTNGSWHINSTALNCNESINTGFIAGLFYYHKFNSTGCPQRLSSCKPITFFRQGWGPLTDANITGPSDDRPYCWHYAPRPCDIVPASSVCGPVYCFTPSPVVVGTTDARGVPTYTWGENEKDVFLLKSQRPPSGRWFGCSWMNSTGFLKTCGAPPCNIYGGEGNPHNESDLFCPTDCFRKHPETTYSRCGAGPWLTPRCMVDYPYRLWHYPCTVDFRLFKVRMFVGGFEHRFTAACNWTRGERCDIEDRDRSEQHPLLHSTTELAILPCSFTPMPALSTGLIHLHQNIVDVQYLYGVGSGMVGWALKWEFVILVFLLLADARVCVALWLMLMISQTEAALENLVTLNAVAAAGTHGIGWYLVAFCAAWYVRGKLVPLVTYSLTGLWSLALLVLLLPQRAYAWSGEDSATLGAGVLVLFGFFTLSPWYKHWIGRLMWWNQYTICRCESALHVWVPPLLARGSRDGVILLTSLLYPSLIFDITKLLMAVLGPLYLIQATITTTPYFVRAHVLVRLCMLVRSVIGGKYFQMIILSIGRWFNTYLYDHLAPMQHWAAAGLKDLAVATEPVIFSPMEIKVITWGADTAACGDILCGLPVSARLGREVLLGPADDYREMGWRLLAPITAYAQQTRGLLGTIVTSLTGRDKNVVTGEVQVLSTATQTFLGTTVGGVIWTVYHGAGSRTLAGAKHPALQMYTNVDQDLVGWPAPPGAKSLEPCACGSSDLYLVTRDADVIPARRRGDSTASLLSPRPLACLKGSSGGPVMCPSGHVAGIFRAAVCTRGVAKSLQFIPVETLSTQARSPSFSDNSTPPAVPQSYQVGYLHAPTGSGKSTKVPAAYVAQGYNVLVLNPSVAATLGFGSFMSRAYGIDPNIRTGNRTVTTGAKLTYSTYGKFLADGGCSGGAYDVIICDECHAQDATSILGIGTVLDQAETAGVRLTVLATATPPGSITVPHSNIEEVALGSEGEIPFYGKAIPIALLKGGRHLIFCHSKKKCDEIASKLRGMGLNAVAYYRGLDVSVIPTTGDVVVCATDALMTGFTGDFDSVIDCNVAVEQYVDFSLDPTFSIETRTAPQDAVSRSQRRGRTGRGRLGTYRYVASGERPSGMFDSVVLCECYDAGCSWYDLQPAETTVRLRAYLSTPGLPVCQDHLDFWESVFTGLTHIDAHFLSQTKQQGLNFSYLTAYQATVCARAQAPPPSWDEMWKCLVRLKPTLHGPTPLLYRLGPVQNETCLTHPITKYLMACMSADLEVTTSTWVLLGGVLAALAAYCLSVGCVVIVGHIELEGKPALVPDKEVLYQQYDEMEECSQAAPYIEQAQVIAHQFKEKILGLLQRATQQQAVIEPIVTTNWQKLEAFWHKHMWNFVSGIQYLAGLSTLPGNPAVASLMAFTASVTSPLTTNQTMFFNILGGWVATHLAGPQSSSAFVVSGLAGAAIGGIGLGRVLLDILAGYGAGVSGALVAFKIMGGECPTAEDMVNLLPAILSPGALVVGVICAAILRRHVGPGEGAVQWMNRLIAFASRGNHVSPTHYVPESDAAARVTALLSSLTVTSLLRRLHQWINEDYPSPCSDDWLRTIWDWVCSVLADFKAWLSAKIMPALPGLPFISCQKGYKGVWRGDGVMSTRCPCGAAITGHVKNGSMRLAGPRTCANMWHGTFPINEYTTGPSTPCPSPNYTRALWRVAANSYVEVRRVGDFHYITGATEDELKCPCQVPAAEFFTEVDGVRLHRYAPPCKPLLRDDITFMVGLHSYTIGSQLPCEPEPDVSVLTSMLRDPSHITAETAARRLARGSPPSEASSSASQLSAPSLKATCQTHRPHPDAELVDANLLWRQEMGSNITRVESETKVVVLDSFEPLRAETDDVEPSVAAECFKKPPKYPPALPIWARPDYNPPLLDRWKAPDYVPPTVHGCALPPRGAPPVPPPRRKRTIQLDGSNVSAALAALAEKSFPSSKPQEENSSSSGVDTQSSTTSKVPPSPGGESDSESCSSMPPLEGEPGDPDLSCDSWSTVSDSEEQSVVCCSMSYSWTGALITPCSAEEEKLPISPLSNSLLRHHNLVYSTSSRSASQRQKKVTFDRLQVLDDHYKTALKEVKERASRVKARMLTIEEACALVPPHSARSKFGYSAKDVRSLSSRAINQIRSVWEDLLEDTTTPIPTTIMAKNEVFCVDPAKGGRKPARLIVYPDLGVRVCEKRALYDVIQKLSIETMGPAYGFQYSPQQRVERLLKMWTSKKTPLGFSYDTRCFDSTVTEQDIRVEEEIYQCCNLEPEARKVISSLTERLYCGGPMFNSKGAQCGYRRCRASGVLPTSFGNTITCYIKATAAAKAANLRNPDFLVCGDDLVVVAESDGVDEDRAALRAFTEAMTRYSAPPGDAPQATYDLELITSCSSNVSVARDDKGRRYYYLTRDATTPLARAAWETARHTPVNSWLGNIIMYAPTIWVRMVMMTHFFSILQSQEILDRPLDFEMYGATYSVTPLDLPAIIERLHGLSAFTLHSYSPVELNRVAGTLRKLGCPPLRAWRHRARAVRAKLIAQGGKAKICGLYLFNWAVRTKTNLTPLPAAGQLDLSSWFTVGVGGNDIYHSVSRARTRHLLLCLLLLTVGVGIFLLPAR

Structure (SMILES) | Ki [1] [nM] | EC50 [2] [nM] | EC50 [3] [nM] | EC50 [4] [nM] | EC50 [5] [nM] | EC50 [6] [nM] | EC50 [7] [nM] | EC50 [8] [nM] | EC50 [9] [nM] | EC50 [10] [nM] | EC50 [11] [nM]
COc1ccc2nc3c(nc2c1)O[C@H]1CN(C(=O)[C@H](C(C)(C)C)NC(=O)O[C@]2(C)C[C@H]2CCCCC3)[C@H](C(=O)N[C@]2(C(=O)NS(=O)(=O)C3(C)CC3)C[C@H]2C(F)F)[C@@H]1C [Example 44, (1aR,5S,8S,9S,10R,22aR)-5-tert-butyl-N-[(1R,2R)-2-(difluoromethyl)-1-{[(1-methylcyclopropyl)sulfonyl]carbamoyl}cyclopropyl]-14-methoxy-1a,9-dimethyl-3,6-dioxo-1,1a,3,4,5,6,9,10,18,19,20,21,22,22a-tetradecahydro-8H-7,10-methanocyclopropa[18,19][1,10,3,6]dioxadiazacyclononadecino[11,12-b]quinoxaline-8-carboxamide] | 0.08 | 2.1 | 2.4 | 7 | 3.1 | 4 | 53 | 2.2 | 2.9 | 1.4 | 15
COc1ccc2nc3c(nc2c1)O[C@H]1CN(C(=O)[C@H](C(C)(C)C)NC(=O)O[C@@H]2C[C@H]2CCCCC3(F)F)[C@H](C(=O)N[C@]2(C(=O)NS(=O)(=O)C3(C)CC3)C[C@H]2C(F)F)[C@@H]1C [Example 46, (1aR,5S,8S,9S,10R,22aR)-5-tert-butyl-N-[(1R,2R)-2-(difluoromethyl)-1-{[(1-methylcyclopropyl)sulfonyl]carbamoyl}cyclopropyl]-18,18-difluoro-14-methoxy-9-methyl-3,6-dioxo-1,1a,3,4,5,6,9,10,18,19,20,21,22,22a-tetradecahydro-8H-7,10-methanocyclopropa[18,19][1,10,3,6]dioxadiazacyclononadecino[11,12-b]quinoxaline-8-carboxamide] | 0.05 | 2.7 | 2.4 | 6.79 | 3.1 | 3.2 | 17 | 2.5 | 3.8 | 1.2 | 4.5
CC[C@@H]1[C@@H]2CN(C(=O)[C@H](C(C)(C)C)NC(=O)O[C@]3(C)C[C@H]3CCCCC(F)(F)c3nc4ccc(OC)cc4nc3O2)[C@@H]1C(=O)N[C@]1(C(=O)NS(=O)(=O)C2(C)CC2)C[C@H]1C(F)F [Example 63, (1aR,5S,8S,9S,10R,22aR)-5-tert-butyl-N-[(1R,2R)-2-(difluoromethyl)-1-{[(1-methylcyclopropyl)sulfonyl]carbamoyl}cyclopropyl]-9-ethyl-18,18-difluoro-14-methoxy-1a-methyl-3,6-dioxo-1,1a,3,4,5,6,9,10,18,19,20,21,22,22a-tetradecahydro-8H-7,10-methanocyclopropa[18,19][1,10,3,6]dioxadiazacyclononadecino[11,12-b]quinoxaline-8-carboxamide] | 0.01 | 2.9 | 4.1 | 6.9 | 4.2 | 4 | 11 | 3.2 | 3.2 | 2.1 | 3.4
CC[C@@H]1[C@@H]2CN(C(=O)[C@H](C(C)(C)C)NC(=O)O[C@@H]3CCCC[C@H]3CCCCCc3nc4ccc(OC)cc4nc3O2)[C@@H]1C(=O)N[C@]1(C(=O)NS(=O)(=O)C2CC2)C[C@H]1C(F)F [Example 66, (4aR,8S,11 S,12S,13R,25aR)-8-tert-butyl-N-[(1R,2R)-1-[(cyclopropylsulfonyl)carbamoyl]-2-(difluoromethyl)cyclopropyl]-12-ethyl-17-methoxy-6,9-dioxo-2,3,4,4a,6,7,8,9,12,13,21,22,23,24,25,25a-hexadecahydro-1H,11H-10,13-methanoquinoxalino[2,3-k][1,10,3,6]benzodioxadiazacyclononadecine-11-carboxamide] | 0.06 | 20 | 35 | 735 | 37 | 240 | 1790 | 25 | 105 | 14 | 396
COc1ccc2nc3c(nc2c1)O[C@H]1CN(C(=O)[C@H](C(C)(C)C)NC(=O)O[C@@H]2CCCC[C@H]2CCCCC3(F)F)[C@H](C(=O)N[C@]2(C(=O)NS(=O)(=O)C3CC3)C[C@H]2C(F)F)[C@@H]1C [Example 68, (4aR,8S,11 S,12S,13R,25aS)-8-tert-butyl-N-[(1R,2R)-1-[(cyclopropylsulfonyl)carbamoyl]-2-(difluoromethyl)cyclopropyl]-21,21-difluoro-17-methoxy-12-methyl-6,9-dioxo-2,3,4,4a,6,7,8,9,12,13,21,22,23,24,25,25a-hexadecahydro-1H,11H-10,13-methanoquinoxalino[2,3-k][1,10,3,6]benzodioxadiazacyclononadecine-11-carboxamide] | 0.63 | 7.7 | 14 | 139 | 13 | 37 | 364 | 9.4 | 18 | 4.4 | 78
CCOc1ccc2nc3c(nc2c1)O[C@H]1CN(C(=O)[C@H](C(C)(C)C)NC(=O)O[C@@H]2C[C@H]2CCCCC3)[C@H](C(=O)N[C@]2(C(=O)NS(=O)(=O)C3(C)CC3)C[C@H]2C(F)F)[C@@H]1CC [Example 69, (1aR,5S,8S,9S,10R,22aR)-5-tert-butyl-N-[(1R,2R)-2-(difluoromethyl)-1-{[(1-methylcyclopropyl)sulfonyl]carbamoyl}cyclopropyl]-14-ethoxy-9-ethyl-3,6-dioxo-1,1a,3,4,5,6,9,10,18,19,20,21,22,22a-tetradecahydro-8H-7,10-methanocyclopropa[18,19][1,10,3,6]dioxadiazacyclononadecino[11,12-b]quinoxaline-8-carboxamide] | 0.17 | 4.9 | 8.2 | 42 | 5.2 | 15 | 64 | 5.8 | 11 | 3.9 | 28
COc1ccc2nc3c(nc2c1)O[C@H]1CN(C(=O)[C@H](C(C)(C)C)NC(=O)O[C@@H]2CC4CC(C4)[C@H]2CCCCC3)[C@H](C(=O)N[C@]2(C(=O)NS(=O)(=O)C3CC3)C[C@H]2C(F)F)[C@@H]1C [Example 71, (4aR,8S,11S,12S,13R,25aR)-8-tert-butyl-N-[(1R,2R)-1-[(cyclopropylsulfonyl)carbamoyl]-2-(difluoromethyl)cyclopropyl]-17-methoxy-12-methyl-6,9-dioxo-2,3,4,4a,6,7,8,9,12,13,21,22,23,24,25,25a-hexadecahydro-1H,11H-1,3,10,13-dimethanoquinoxalino[2,3-k][1,10,3,6]benzodioxadiazacyclononadecine-11-carboxamide] | 0.14 | 5.3 | 9.1 | 49 | 6.5 | 30 | 160 | 5.3 | 23 | 3.8 | 66
COc1ccc2nc3c(nc2c1)O[C@H]1CN(C(=O)[C@H](C(C)(C)C)NC(=O)O[C@]2(C)C[C@H]2CCCCC3(F)F)[C@H](C(=O)N[C@]2(C(=O)NS(=O)(=O)C3(C)CC3)C[C@H]2C(F)F)[C@@H]1C [Example 76, (1aR,5S,8S,9S,10R,22aR)-5-tert-butyl-N-[(1R,2R)-2-(difluoromethyl)-1-{[(1-methylcyclopropyl)sulfonyl]carbamoyl}cyclopropyl]-18,18-difluoro-14-methoxy-1a,9-dimethyl-3,6-dioxo-1,1a,3,4,5,6,9,10,18,19,20,21,22,22a-tetradecahydro-8H-7,10-methanocyclopropa[18,19][1,10,3,6]dioxadiazacyclononadecino[11,12-b]quinoxaline-8-carboxamide] | 0.06 | 2.2 | 2 | 3.4 | 2.4 | 2.1 | 9 | 1.9 | 2.4 | 1 | 2.8
